Where a name gives a salt, the structure may show the parent alone.
Experiments:
[1] = test system: L. donovani strain BPK190 amastigotes; experiment: Activity against L. donovani intramacrophage amastigotes (bone marrow-derived macrophages, qPCR); assay type: cell-based, Leishmania donovani; conditions: infected bone marrow-derived macrophages, 48 h; for inhibition of growth at 5 µM: Leishmania donovani, Macrophage, read-out: Parassite Load Reduction (%)
Experimental: L. donovani strain BPK 190 [55] was cultivated at 25 °C in modified Medium199 (Sigma-Aldrich, with 20% heat-inactivated FCS, 40 mM HEPES pH 7.4, 0.2% NaHCO3, 100 μM adenin, 1.2 μg/mL 6-biopterin and 10 μg/mL haem, with 1 × Pen/Strep/l-glutamine (Sigma, Saint Louis, MI, USA), pH 7.0).
Activity against L. donovani strain BPK190 was tested in vitro using bone marrow-derived macrophages as host cells. Infection was established for 24 h prior to the addition of compounds from 10 mM stocks in DMSO. Parasite load was determined 48 h later by quantifying Leishmania actin DNA relative to mouse actin DNA using real time qPCR as described.

CYP3A4 = biological target: T1, CYP3A4 (Homo sapiens, UniProt P08684); experiment: Cytochrome P450 inhibition assay (P450-Glo) CYP3A4; assay type: in vitro ADME; conditions: compounds 10 μM; miltefosine 10 μM or 1 μM
T1 construct: purchased Corning Inc; host or cells: baculovirus-infected insect cells
T1 sequence (P08684 2-503 limits assumed): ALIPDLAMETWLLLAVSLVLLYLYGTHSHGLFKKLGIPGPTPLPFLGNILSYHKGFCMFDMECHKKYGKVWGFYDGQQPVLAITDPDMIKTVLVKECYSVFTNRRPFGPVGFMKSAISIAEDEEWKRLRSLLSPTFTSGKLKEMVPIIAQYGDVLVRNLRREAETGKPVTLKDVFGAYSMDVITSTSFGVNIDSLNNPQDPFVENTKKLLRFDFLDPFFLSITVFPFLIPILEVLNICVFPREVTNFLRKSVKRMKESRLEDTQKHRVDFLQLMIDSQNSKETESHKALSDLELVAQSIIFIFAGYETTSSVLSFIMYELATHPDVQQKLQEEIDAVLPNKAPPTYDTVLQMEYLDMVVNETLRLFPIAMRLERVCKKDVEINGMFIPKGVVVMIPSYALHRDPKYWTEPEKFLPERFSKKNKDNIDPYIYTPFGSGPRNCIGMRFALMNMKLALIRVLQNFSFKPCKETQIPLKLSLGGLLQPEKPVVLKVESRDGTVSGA
Excerpt: (§1) Cytochrome (CYP) P450 inhibition assay: These assays made use of microsomal preparations of CYP450 (1A2, 2C9, 2C19, 2D6 and 3A4) from baculovirus-infected insect cells (Corning Inc., Corning, NY, USA) and cytochrome c reductase (and cytochrome b5 for CYP450 3A4). For detection of CYP450 activity, the luminescence-based P450-Glo (Promega Corp., Madison, WI, USA) assay system was used that contained a luminogenic CYP450 substrate, lyophilized luciferin detection reagent and reconstitution buffer. The substrates were luciferin derivatives of CYP450-specific substrates that produce (4S)-4,5-dihydro-2-(6-hydroxybenzothiazolyl)-4-thiazolecarboxylic acid (D-luciferin) after cleavage by CYP450 (CYP450 3A4, luciferin-IPA; CYP450 2C19, luciferin-H EGE; CYP450 2C9, luciferin-H; CYP450 2D6, luciferin-ME EGE; CYP450 1A2, luciferin-1A2). CYP450 reactions were initiated by addition of the NADPH regeneration system to the enzyme–substrate mixture with the luciferin detection reagent stopping the reaction and the D-luciferin being converted to oxyluciferin under the production of light being proportional to the CYP450 activity. The CYP450 assays were performed using the Tecan Fluent liquid-handling automation platform (Tecan Group Ltd., Mannedorf, Switzerland) in the 384-well assay format. Compounds were added into an empty 384-well plate (100 nL/well in 1% v/v DMSO) using the Echo 550 Liquid Handler followed by the addition of 5 μL/well of the CYP450/substrate mixture and incubation for 30 min at 37 °C, after which the reaction was initiated by the addition of the 5 μL/well NADPH regeneration system. After a further 30-min incubation at 37 °C, the CYP450 reaction was stopped and the luciferase reaction was simultaneously initiated by addition of 10 μL/well of luciferin detection reagent, followed by an additional 30-min incubation at 37 °C. The luminescence signal was detected using an Infinite M1000 PRO plate reader (Tecan Group Ltd., Mannedorf, Switzerland). The NCs yielded 0% inhibition (1% v/v DMSO) and standard CYP450 specific inhibitors were used as positive controls, yielding 100% inhibition (CYP450 1A2, alpha-naphthoflavone; CYP450 2C9, sulfaphenazole; CYP450 2C19, troglitazone; CYP450 2D6, quinidine; CYP450 3A4, ketoconazole).
(§2) Data analysis: The screening data were obtained in triplicate and analysed using ActivityBase (IDBS, Guildford, UK), and outlier elimination in the control wells was performed using the 3-sigma method. Unless stated, dose–response experiments were performed in the 11-point format with the IC50 value, Hill slope, minimum signal and maximum signal for each dose–response curve obtained using a four-parameter logistic fit in the XE module of ActivityBase (IDBS).

hERG = biological target: T2, hERG (Homo sapiens, UniProt Q12809); experiment: hERG cardiotoxicity assay (Predictor hERG fluorescence polarization); assay type: binding; conditions: compounds 10 μM; miltefosine 10 μM or 1 μM
T2 construct: purchased Thermo Fischer Scientific
T2 sequence (Q12809 whole entry): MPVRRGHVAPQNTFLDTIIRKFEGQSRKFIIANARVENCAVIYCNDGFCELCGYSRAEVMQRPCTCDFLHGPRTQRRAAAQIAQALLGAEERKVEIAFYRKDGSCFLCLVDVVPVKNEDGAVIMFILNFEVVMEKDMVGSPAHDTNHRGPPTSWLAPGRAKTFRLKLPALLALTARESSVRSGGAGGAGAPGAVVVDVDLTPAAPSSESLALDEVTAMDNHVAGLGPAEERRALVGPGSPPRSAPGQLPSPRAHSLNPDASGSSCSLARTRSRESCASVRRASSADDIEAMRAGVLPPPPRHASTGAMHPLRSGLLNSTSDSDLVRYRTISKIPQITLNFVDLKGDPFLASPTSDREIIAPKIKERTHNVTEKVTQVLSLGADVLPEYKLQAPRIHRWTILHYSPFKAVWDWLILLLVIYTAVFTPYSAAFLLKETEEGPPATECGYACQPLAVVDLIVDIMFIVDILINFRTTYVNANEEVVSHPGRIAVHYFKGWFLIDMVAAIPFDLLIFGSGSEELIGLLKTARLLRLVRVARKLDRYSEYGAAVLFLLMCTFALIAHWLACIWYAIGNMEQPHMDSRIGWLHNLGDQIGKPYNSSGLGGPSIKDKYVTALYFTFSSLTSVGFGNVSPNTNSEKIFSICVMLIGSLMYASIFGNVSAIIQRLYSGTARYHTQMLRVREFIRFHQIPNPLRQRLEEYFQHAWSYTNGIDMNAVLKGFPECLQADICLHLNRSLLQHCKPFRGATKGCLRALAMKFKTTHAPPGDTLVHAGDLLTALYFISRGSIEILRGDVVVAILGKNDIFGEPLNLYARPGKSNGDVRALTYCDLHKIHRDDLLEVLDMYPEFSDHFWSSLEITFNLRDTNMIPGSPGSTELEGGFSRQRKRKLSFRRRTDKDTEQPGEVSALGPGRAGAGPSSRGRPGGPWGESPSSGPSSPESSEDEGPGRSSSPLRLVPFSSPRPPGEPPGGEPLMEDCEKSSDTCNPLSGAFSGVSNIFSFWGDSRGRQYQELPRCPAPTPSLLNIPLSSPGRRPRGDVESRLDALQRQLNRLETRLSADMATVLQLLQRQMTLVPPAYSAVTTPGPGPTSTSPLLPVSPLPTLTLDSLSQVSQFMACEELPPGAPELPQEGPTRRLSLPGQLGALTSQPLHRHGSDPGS
Experimental: hERG cardiotoxicity assay: The Predictor® hERG fluorescence polarization assay (Thermo Fischer Scientific, Waltham, MA, USA) was used to test compounds for potential cardiotoxicity. To each well of the assay plate, 100 nL of the test/control compound was added followed by addition of 5 μL homogenized membrane solution (undiluted) and 5 μL of tracer (1 nM final concentration in the assay). The plates were incubated for 2 h at 25 °C in a humidity controlled incubator, and the fluorescence polarization was measured using an EnVision Multilabel 2103 Reader (PerkinElmer, Waltham, MA. USA). The NCs (0% inhibition) and positive controls with E-4031, a blocker of hERG-type potassium channels (yielding 100% inhibition), were used to normalize the raw data.
as §2

CYP2C19 = biological target: T3, CYP2C19 (Homo sapiens, UniProt P33261); experiment: Cytochrome P450 inhibition assay (P450-Glo) CYP2C19; assay type: in vitro ADME; conditions: compounds 10 μM; miltefosine 10 μM or 1 μM
T3 construct: purchased Corning Inc; host or cells: baculovirus-infected insect cells
T3 sequence (P33261 whole entry): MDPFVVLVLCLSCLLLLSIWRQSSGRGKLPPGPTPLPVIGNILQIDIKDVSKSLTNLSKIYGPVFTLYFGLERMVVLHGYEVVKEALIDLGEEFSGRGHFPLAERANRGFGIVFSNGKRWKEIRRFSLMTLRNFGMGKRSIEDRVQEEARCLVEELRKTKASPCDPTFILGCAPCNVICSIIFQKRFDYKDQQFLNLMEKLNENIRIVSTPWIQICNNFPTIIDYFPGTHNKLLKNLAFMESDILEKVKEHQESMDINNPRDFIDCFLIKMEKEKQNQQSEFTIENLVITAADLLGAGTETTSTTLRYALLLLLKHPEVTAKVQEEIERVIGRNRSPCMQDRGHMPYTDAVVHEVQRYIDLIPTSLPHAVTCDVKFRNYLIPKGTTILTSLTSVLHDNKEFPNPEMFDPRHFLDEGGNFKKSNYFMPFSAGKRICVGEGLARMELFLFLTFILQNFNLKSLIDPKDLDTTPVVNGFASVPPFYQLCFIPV
Excerpt: as §1, §2

Compound | inhibition of growth at 5 µM [1] | % inhibition ± SD at 10 μΜ CYP3A4 (CYP3A4) | % inhibition ± SD at 10 μΜ hERG (hERG) | % inhibition ± SD at 10 μΜ CYP2C19 (CYP2C19) | Parassite Load Reduction (%) ([1]; 5 μM)
C[N+](C)(C)CCOP(=O)([O-])OCCCCCn1cc(CCCCCCCCN)nn1 [Compound 35, 5-(4-(8-aminooctyl)-1H-1,2,3-triazol-1-yl)pentyl (2-(trimethylammonio)ethyl) phosphate inner salt] | 69.1% | –8.64% | 0.10% | –3.09% | –
CCCCCCCCCCc1cc(CCCCCCCCCCOP(=O)([O-])OCC[N+](C)(C)C)no1 [Compound 41, 10-(5-decylisoxazol-3-yl)decyl (2-(trimethylammonio)ethyl) phosphate inner salt] | – | – | – | 5.65% | –
CCCCCCCc1nnc(CCCCCCCCCCOP(=O)([O-])OCC[N+](C)(C)C)o1 [Compound 65, 10-(5-heptyl-1,3,4-oxadiazol-2-yl)decyl (2-(trimethylammonio)ethyl) phosphate inner salt] | – | –2.44% | 8.64% | –1.75% | –
C[N+](C)(C)CCOP(=O)([O-])OCCCCCn1cc(CCCCCCCCNC(=O)OCc2ccccc2)nn1 [Compound 31, 5-(4-(8-(((benzyloxy)carbonyl)amino)octyl)-1H-1,2,3-triazol-1-yl)pentyl (2-(trimethylammonio)ethyl) phosphate inner salt] | 59.2% | –7.33% | –6.43% | –2.38% | –
CCCCCCCCCCCc1nnc(CCCCCCCCCCOP(=O)([O-])OCC[N+](C)(C)C)o1 [Compound 66, 2-(trimethylammonio)ethyl (10-(5-undecyl-1,3,4-oxadiazol-2-yl)decyl) phosphate inner salt] | – | – | 22.98% | 23.97% | –
C[N+](C)(C)CCOP(=O)([O-])OCCCCCCCCCCCn1cc(CC2CCCCC2)nn1 [Compound 29, 11-(4-(cyclohexylmethyl)-1H-1,2,3-triazol-1-yl)undecyl (2-(trimethylammonio)ethyl) phosphate inner salt] | 41.7% | –33.59% | –4.90% | –28.74% | –
C[N+](C)(C)CCOP(=O)([O-])OCCCCCCCCCCCn1cc(CCCCCCCCNC(=O)OCc2ccccc2)nn1 [Compound 32, 11-(4-(8-(((benzyloxy)carbonyl)amino)octyl)-1H-1,2,3-triazol-1-yl)undecyl (2-(trimethylammonio)ethyl) phosphate inner salt] | 0.7% | – | – | – | abolished the activity
CCCCCc1cn(CCCCCCCCCCCOP(=O)([O-])OCC[N+](C)(C)C)nn1 [Compound 25, 11-(4-pentyl-1H-1,2,3-triazol-1-yl)undecyl (2-(trimethylammonio)ethyl) phosphate inner salt] | 0% | –20.13% | –7.70% | –32.10% | –
C[N+](C)(C)CCOP(=O)([O-])OCCCCCCCCCCCn1cc(CC2CCCC2)nn1 [Compound 28, 11-(4-(cyclopentylmethyl)-1H-1,2,3-triazol-1-yl)undecyl (2-(trimethylammo nio)ethyl) phosphate inner salt] | 0% | –33.70% | –3.64% | –32.71% | –
C[N+](C)(C)CCCOP(=O)([O-])OCCCCCCCCCCCn1cc(CC2CCCCC2)nn1 [Compound 33, 11-(4-(cyclohexylmethyl)-1H-1,2,3-triazol-1-yl)undecyl (3-(trimethylammonio)propyl) phosphate inner salt] | 47.8% | 7.61 ± 9.09% | 16.60 ± 2.64% | 4.22% | –
CCCCCCCCCCCCCCCCOP(=O)([O-])OCC[N+](C)(C)C [Miltefosine, hexadecylphosphocholine, reference compound] | 44.3% | 8.39% | –16.92% | 7.92% | –
CCCCCCCCc1noc(CCCCCOP(=O)([O-])OCC[N+](C)(C)C)n1 [Compound 53, 5-(3-octyl-1,2,4-oxadiazol-5-yl)pentyl (2-(trimethylammonio)ethyl) phosphate inner salt] | – | –12.40% | 8.95% | –17.22% | –
CCCCCCCCc1noc(CCCCCCCCCCOP(=O)([O-])OCC[N+](C)(C)C)n1 [Compound 54, 10-(3-octyl-1,2,4-oxadiazol-5-yl)decyl (2-(trimethylammonio)ethyl) phosphate inner salt] | – | 13.88% | 17.93% | 10.43% | –
C[N+](C)(C)CCOP(=O)([O-])OCCCCCCCCCCCn1cc(CCCCCCCCC(=O)O)nn1 [Compound 34, 11-(4-(8-carboxyoctyl)-1H-1,2,3-triazol-1-yl)undecyl (2-(trimethylammonio)ethyl) phosphate inner salt] | 43.8% | 19.27% | – | 4.89% | –
